Patent US10925885B2, “Thyromimetics for the treatment of fatty liver diseases” (Metabasis Therapeutics, Inc., priority 2005, dated 2021)
“Also recorded” adds a separate entry of the source.

Columns and labels:
mGPDH = experiment: Liver mGPDH activity in isolated mitochondria, normal rats; type: in vivo; conditions: normal Sprague-Dawley rats, 1 mg/kg/day continuous infusion, subcutaneous osmotic pump
Protocol: (§1) Methods: Normal rats (Sprague-Dawley) were maintained on a standard diet. Compounds 7, 17, 6, TRIAC or T3 were administered by continuous infusion using an osmotic pump (Alzet; subcutaneous implant) at a dose of 1 mg/kg/day. The compounds were dissolved in 0.1N NaOH solution and the pH adjusted to 7.4-8.0. The compounds were brought up to an appropriate volume using PBS and BSA to maintain solubility within the pump. The compounds were chemically stable in the excipient at 37° C. for 7 days. Body weights were measured and the change from the starting body weight was calculated. The 4.5% reported for the vehicle animals represent a 4.5% increase in body weight over the course of the experiment.
(§2) Sections of liver were removed and frozen. Liver triglycerides were analyzed following lipid extraction by the Bligh Dyer method (Bligh and Dyer, Can. J. Med. Sci. 37(8):911-7 (1959), incorporated herein by reference). Total triglycerides were analyzed in the liver extracts by an enzymatic assay (Thermo Electron Corporation). Total lipid was normalized to initial liver weight and triglyceride content was normalized to liver weight mGPDH activity was analyzed in isolated mitochondria using 2-(4-iodophenyl)-3-(4-nitrophenyl)-5-phenyl tetrazolium chloride as the terminal electron acceptor (Gardner R S, Analytical Biochemistry 59:272 (1974)). Commercially available GPDH was used in each assay as a standard (Sigma, St. Louis, Mo.).

[1] = system: thyroid-responsive genes in the liver; conditions: T3-treated vs hypothyroid mice; cited from earlier work
liver triglycerides [2] = experiment: Liver triglycerides, chronic exposure in normal rats; type: in vivo, rats (Sprague-Dawley); conditions: 1 mg/kg/day continuous infusion; for Triglycerides (mg/g liver): normal Sprague-Dawley rats, subcutaneous osmotic pump, one week; for Effect on liver (hepatic) triglyceride content, in words: normal rats, systemic administration
Description: The purpose of these studies was to compare the difference in efficacy to clear liver triglyceride content between T3 and various T3 mimetics that are carboxylic acids and T3 mimetics that are phosphonic acids. In one example, T3 and Compounds 7 and 17, which differ only in that for Compound 7, the X moiety of Formula II is —P(O)OH2 and for Compound 17, X is —C(O)OH, were compared. In the same example TRIAC and Compound 6, which differ only in that for Compound 6, X is —P(O)OH2 and for TRIAC, X is —C(O)OH, were compared. Efficacy was measured by analyzing total liver triglycerides.
as §1, §2

[3] = Epididymal fat pad weight in ob/ob mice; type: in vivo
Protocol: (§3) Methods: ob/ob mice were maintained on a standard diet. Compound cis-13-1 was administered at doses of 3, 10 and 30 mg/kg/d orally in a CMC suspension. T3, 100 nmole/kg/d, was administered as an aqueous solution subcutaneously. Liver triglycerides were analyzed as described in example A. Epididymal fat pads were removed and weighed. Clinical chemistry analysis was performed by LabCorp (San Diego, Calif.).

[4] = Body weight change, chronic exposure in normal rats; type: in vivo, rats (Sprague-Dawley); conditions: 1 mg/kg/day continuous infusion; for Body Weight (% change from start): normal Sprague-Dawley rats, subcutaneous osmotic pump, one week; for Effect on body weight, in words: normal rats
Protocol: as §1

hepatic steatosis [5] = experiment: Hepatic steatosis measured chemically and histologically in ob/ob mice; type: in vivo; conditions: oral administration of cis-13-1
Protocol: as §3

liver triglycerides [6] = experiment: Liver triglycerides, chronic exposure in ob/ob mice; type: in vivo
Protocol: as §2
The purpose of these studies was to compare the difference in efficacy to clear liver triglyceride content between Compound cis-13-1 and T3 in ob/ob mice.
as §3

hepatic steatosis [7] = experiment: Liver steatosis (H&E sections) in ZDF rats; type: in vivo, Zucker diabetic fatty (ZDF) rats; conditions: oral, CMC suspension
Protocol: Methods: ZDF rats were maintained on a standard diet (5008). Compounds cis-13-1 or 18 were administered orally at the indicated doses using a CMC suspension. Liver steatosis was analyzed visually following H&E staining of paraffin embedded liver sections. TSH was measured using a rodent specific kit (Amersham Biosciences). At the end of the experiment, the left ventricle was cannulated with a high fidelity catheter-tip transducer (Millar) via the right carotid artery. Left ventricle pressure, its first derivative (LV dP/dt), lead I ECG, and heart rate triggered off the ECG waveform, were recorded.

liver TG = conditions: thyroxine treatment, cited from earlier work
[8] = T3 100 nmole/kg/d subcutaneously

Compound: 3,3′,5′-triiodothyronine [Compound T3]
- Liver mGPDH activity (% vehicle) (mGPDH): 406 ± 54 % vehicle
- Fold, AM2 receptor [1]: 0.3 Fold
- Fold, Actin, α cardiac [1]: 0.3 Fold
- Fold, Actin, γ-enteric smooth muscle [1]: 0.3 Fold
- Fold, Arylsulfatase A [1]: 0.3 Fold
- Fold, B61 [1]: 2.3 Fold
- Fold, Bcl-3 [1]: 2.5 Fold
- Fold, C11 protein [1]: 0.3 Fold
- Fold, Capping protein a-subunit [1]: 0.3 Fold
- Fold, Carbonyl reductase (Cbr1) [1]: 3.3 Fold
- Fold, Chromodomain-helicase-DNA binding protein CHD-1 [1]: 0.4 Fold
- Fold, Cyp4a-10 [1]: 0.3 Fold
- Fold, Cytoskeletal β-actin [1]: 0.3 Fold
- Fold, EST [1]: 0.4 Fold
- Fold, FK506-binding protein (FKBP23) [1]: 0.2 Fold
- Fold, FK506-binding protein (FKBP65) [1]: 0.3 Fold
- Fold, Fatty acid transport protein (FATP) [1]: 1.8 Fold
- Fold, Glucose regulated protein 78 [1]: 0.3 Fold
- Fold, Glucose-6-phosphatase [1]: 3.8 Fold
- Fold, Glycerophosphate dehydrogenase [1]: 0.3 Fold
- Fold, H-2 class I histocompatibility antigen [1]: 0.3 Fold
- Fold, Inhibitory G protein of adenylate cyclase, α chain [1]: 0.3 Fold
- Fold, Insulin-like growth factor binding protein 1 precursor [1]: 3.0 Fold
- Fold, Kinesin-like protein (KipIp) [1]: 2.0 Fold
- Fold, Lamin A [1]: 0.3 Fold
- Fold, Lupus la protein homolog [1]: 0.3 Fold
- Fold, Major urinary protein 2 precursor [1]: 3.9 Fold
- Fold, Membrane-type matrix metalloproteinase [1]: 0.2 Fold
- Fold, Mitochondrial genome [1]: 0.4 Fold
- Fold, Murine vik5variant in the kinase [1]: 0.1 Fold
- Fold, Myosin binding protein H (MyBP-H) [1]: 2.2 Fold
- Fold, NfiB1-protein (exon 1-12) [1]: 0.3 Fold
- Fold, Nuclear-encoded mitochondrial acyltransferase [1]: 0.2 Fold
- Fold, PHAS-II [1]: 0.3 Fold
- Fold, Protein kinase C inhibitor (mPKCl) [1]: 2.1 Fold
- Fold, Protein kinase C, Θ type [1]: 0.3 Fold
- Fold, Protein kinase ζ [1]: 0.5 Fold
- Fold, Putative ATP-dependent RNA helicase PL10 [1]: 0.3 Fold
- Fold, Putative SH3-containing protein SH3P12 [1]: 0.3 Fold
- Fold, Putative transcription factor of the insulin gene [1]: 0.3 Fold
- Fold, Rho-associated, coiled-coil forming protein kinase p160 [1]: 0.2 Fold
- Fold, Serine/threonine kinase (Akt2) [1]: 0.3 Fold
- Fold, Skeletal muscle actin [1]: 0.3 Fold
- Fold, Spot 14 gene [1]: 8.8 Fold
- Fold, T-complex protein 1, d subunit [1]: 0.3 Fold
- Fold, TGN38B [1]: 0.3 Fold
- Fold, Terminal deoxynucleotidyltransferase [1]: 0.3 Fold
- Fold, Thymic stromal stimulating factor [1]: 0.3 Fold
- Fold, Ubiquitin-activating enzyme E1 X [1]: 0.3 Fold
- Fold, Virus-like (VL30) retrotransposon BVL-1 [1]: 0.3 Fold
- Fold, ece1 (endothelin-converting enzyme) [1]: 0.2 Fold
- Fold, α-2,3-Sialyltransferase [1]: 0.3 Fold
- Fold, α-Adaptin [1]: 0.3 Fold
- Fold, α-Globin [1]: 2.7 Fold
- Fold, β-2 Adrenergic receptor [1]: 3.4 Fold
- Fold, β-Galactoside α 2,6-sialyltransferase [1]: 0.3 Fold
- Fold, β-Globin [1]: 2.3 Fold
- Triglycerides (mg/g liver) (liver triglycerides [2]): 3.6 ± 0.6 mg/g liver
- Effect on liver (hepatic) triglyceride content, in words (liver triglycerides [2]; 1 mg/kg/day): did not demonstrate a decrease in hepatic triglyceride content; also recorded: did not significantly decrease liver triglyceride content
- EFP weight [3, 8]: 2.0 ± 0.1 g
- Effect on epididymal fat pad (EFP) weight, in words ([3]; cis-13-1 oral, T3 100 nmole/kg/d s.c.): significantly decreased EFP weight; also recorded: significantly decreased epididymal fat pad weight
- Body Weight (% change from start) [4]: −8.2 ± 1.5 % change from start
- Effect on body weight, in words ([4]; 1 mg/kg/day): decreased body weight; also recorded: loss of body weight
- Effect on hepatic steatosis measured chemically and histologically, in words (hepatic steatosis [5]): no significant effect on hepatic steatosis
- Liver Trigs (liver triglycerides [6]; [8]): 86 ± 5 mg/g
- Effect on liver (hepatic) triglyceride content, in words (liver triglycerides [6]; cis-13-1 oral 3, 10, 30 mg/kg/d, T3 100 nmole/kg/d s.c.): did not significantly decrease liver triglyceride content

Compound: O=P(O)(O)Cc1cc(I)c(Oc2ccc(O)c(I)c2)c(I)c1 [Compound 6]
- Liver mGPDH activity (% vehicle) (mGPDH): 291 ± 37 % vehicle
- Triglycerides (mg/g liver) (liver triglycerides [2]): 1.3 ± 0.2 mg/g liver
- Effect on liver (hepatic) triglyceride content, in words (liver triglycerides [2]): significant decrease in hepatic triglyceride content
- Body Weight (% change from start) [4]: 8.7 ± 0.8 % change from start
- Effect on body weight, in words [4]: did not decrease body weight

Compound: Cc1cc(OCP(=O)(O)O)cc(C)c1Cc1ccc(O)c(C(C)C)c1 [Compound 7]
- Liver mGPDH activity (% vehicle) (mGPDH): 399 ± 40 % vehicle
- Triglycerides (mg/g liver) (liver triglycerides [2]): 1.3 ± 0.4 mg/g liver
- Effect on liver (hepatic) triglyceride content, in words (liver triglycerides [2]): significant decrease in hepatic triglyceride content
- Body Weight (% change from start) [4]: 9.1 ± 1.5 % change from start
- Effect on body weight, in words [4]: did not decrease body weight

Compound: Cc1cc(OCC(=O)O)cc(C)c1Cc1ccc(O)c(C(C)C)c1 [Compound 17]
- Liver mGPDH activity (% vehicle) (mGPDH): 426 ± 45 % vehicle
- Triglycerides (mg/g liver) (liver triglycerides [2]): 1.8 ± 0.3 mg/g liver
- Effect on liver (hepatic) triglyceride content, in words (liver triglycerides [2]): significant decrease in hepatic triglyceride content
- Body Weight (% change from start) [4]: −5.4 ± 1.0 % change from start
- Effect on body weight, in words ([4]; 1 mg/kg/day): decreased body weight
- Effect on body weight, in words ([4]; listed as compound 17, 1 mg/kg/day): loss of body weight

Compound: CC(C)c1cc(Oc2c(Cl)cc(CC(=O)O)cc2Cl)ccc1O [Compound 18]
- Effect on hepatic steatosis (visual, H&E), in words (hepatic steatosis [7]): visually decreased hepatic steatosis compared to control

Compound: O=C(O)Cc1cc(I)c(Oc2ccc(O)c(I)c2)c(I)c1 [TRIAC]
- Liver mGPDH activity (% vehicle) (mGPDH): 384 ± 28 % vehicle
- Triglycerides (mg/g liver) (liver triglycerides [2]): 1.5 ± 0.4 mg/g liver
- Effect on liver (hepatic) triglyceride content, in words (liver triglycerides [2]): significant decrease in hepatic triglyceride content
- Body Weight (% change from start) [4]: −1.7 ± 0.6 % change from start
- Effect on body weight, in words ([4]; 1 mg/kg/day): decreased body weight; also recorded: loss of body weight

Compound: N[C@@H](Cc1cc(I)c(Oc2cc(I)c(O)c(I)c2)c(I)c1)C(=O)O [thyroxine, 3,3′,5,5′-tetraiodothyronine]
- Decrease of liver TG (liver TG; after one week): 5 fold
- Rebound of liver TG (liver TG; by the end of five weeks): 4 fold
